Like-named read-outs stand apart in the source and are kept apart here.
How the values were obtained:
[1] = molar extinction spectrum in THF; format: physicochemical
Text: The absorbance peaks and molar extinction coefficients are shown below in Table 2.
The Absorbance peaks and molar extinction coefficients are shown below in Table 3.
The absorbance peaks and molar extinction coefficients are shown below in Table 4.

[2] = system: mouse colon adenocarcinoma cell line Colo26; conditions: colo26 cells; for cell kill on irradiation: irradiation with 100 J cm^-2 white light; for photodynamic activity: 100 J cm^-2 white light
Protocol: Evaluation of in vitro Photodvnamic Tumour Cell Kill
The non-metastasing mouse colon adenocarcinoma cell line Colo26 was maintained in monolayer culture in RPMI 1640 glutamax medium supplemented with 10% heat-inactivated foetal calf serum, 100 U ml^−1 penicillin and 100 mg ml^−1 streptomycin. Cells grown to confluence were separated by trypsinisation to produce a suspension of 1.39 million cells per ml. A sample of 2.16 ml of this cell suspension was diluted to 50 ml with CM10 medium to give suspensions of 60,000 cells per ml. 100 μl of this suspension containing 6000 cells was added to each of the 60 inner wells of two 96-well culture plates. The outer wells of each plate were filled with sterile water. This was done to avoid errors resulting from the loss by evaporation of the rather small volumes of cell culture medium. The cells were incubated at 37° C. and 5% CO2 in a humidified incubator for 24 hours. A further 100 μl of cell culture medium containing a range of concentrations of each photosensitiser and tetrahydoflran (THF) vehicle was then added to groups of six wells. Tetrahydrofuran was chosen as solvent because it is relatively freely miscible with water and a pilot experiment had shown that incubation of cells for 48 hours with 0.5-1% THF had no effect on cell growth. An initial stock solution of 200 μl of each photosensitiser in THF was prepared and this solution used to prepare a series of sub-stock solutions in cell culture medium CM10 for addition to the tumour cell cultures.
After 20 hours of incubation with the cells, the medium containing the sensitiser and vehicle was removed and the cells washed once with buffer solution at 37° C. before the addition of fresh cell culture medium without photosensitiser or vrhicle. One of the two cell culture plates was then protected from light with aluminium foil and placed alongside the other plate which was irradiated with 100 joules cm^−2 of full-spectrum white light from an Applied Photophysics Irradiator. The light was delivered to the base of the 96-well plate through a glass platform (which served to filter short-wavelength ultraviolet light) as a 20 cm diameter spot. After irradiation both plates were returned to the incubator for a further 18 hours.
Cell growth inhibition following incubation with each photosensitiser and irradiation was determined using the European Union approved Neutral Red photocyiotoxicity protocol (Annexe II to Directive 2000/33/EC) adapted for visible light irradiation and the use of colo26 cells.

[3] = in toluene, reference standard whose quantum yield is known; cited from earlier work
[4] = concentrations of 0.5 μM and above

| molar extinction coefficient ε ([1]; peak wavelength 418, THF) | molar extinction coefficient ε ([1]; peak wavelength 502, THF) | molar extinction coefficient ε ([1]; peak wavelength 532, THF) | molar extinction coefficient ε ([1]; peak wavelength 606, THF) | molar extinction coefficient ε ([1]; peak wavelength 668, THF) | molar extinction coefficient ε ([1]; peak wavelength 456, THF) | molar extinction coefficient ε ([1]; peak wavelength 537, THF) | molar extinction coefficient ε ([1]; peak wavelength 589, THF) | molar extinction coefficient ε ([1]; peak wavelength 659, THF) | molar extinction coefficient ε ([1]; peak wavelength 708, THF) | molar extinction coefficient ε ([1]; peak wavelength 724, THF) | Compound | cell kill on irradiation ([2]; 2 μM and above) | photodynamic activity [2] | cell kill on irradiation [2, 4] | singlet oxygen quantum yield of reference [3] |
| --- | --- | --- | --- | --- | --- | --- | --- | --- | --- | --- | --- | --- | --- | --- | --- |
| 300,000 1 mol^−1 cm^−1 | 29,800 1 mol^−1 cm^−1 | 5,300 1 mol^−1 cm^−1 | 4,900 1 mol^−1 cm^−1 | 3,000 1 mol^−1 cm^−1 | – | – | – | – | – | – | CCCCCCCCCCCCCCCCOc1ccc(C2=C3C=CC(=N3)C(c3ccccc3)=c3ccc([nH]3)=CC3=NC(=CC4=CC=C2S4)C=C3)cc1 [porphyrin (8), 5-(4-hexadecyloxyphenyl)-10-(phenyl)-15,20-H-21-thiaporphryin] | approaching total cell kill | photodynamic activity | substantial cell kill | – |
| – | – | – | – | – | – | – | – | – | – | – | C=Cc1c(C)c2cc3nc(c4c5[n-]c(cc6nc(cc1[n-]2)C(C)=C6CC)c(C)c5C(=O)[C@@H]4C(=O)OC)[C@@H](CCC(=O)OC/C=C(\C)CCC[C@H](C)CCC[C@H](C)CCCC(C)C)[C@@H]3C.[Mg+2] [chlorophyll A] | – | – | – | 0.6 |
| – | – | – | – | – | 378,985 1 mol^−1 cm^−1 | 24,330 1 mol^−1 cm^−1 | 40,385 1 mol^−1 cm^−1 | 6,335 1 mol^−1 cm^−1 | 11,635 1 mol^−1 cm^−1 | 13,320 1 mol^−1 cm^−1 | CCCCCCCCCCCCCCCCOc1ccc(-c2c3nc(c(-c4ccccc4)c4ccc([nH]4)c(C#Cc4ccccn4)c4nc(c(C#Cc5ccccn5)c5ccc2s5)C=C4)C=C3)cc1 [porphyrin (10), 5-(4-hexadecyloxyphenyl)-10-(phenyl)-15,20-(2-ethynylpyridine)-21-thiaporphyrin] | approaching total cell kill | photodynamic activity | substantial cell kill | – |

Source: patent US20070015742A1, “Porphyrin derivatives” (priority 2003, published 2007)
